No end group written: not given here. *: point of attachment. Biotin = O=C1N[C@H]2[C@H](CS[C@H]2CCCCC(=O)*)N1
These substances were tested on live cells in suspension or subconfluent monolayers. Details: not given.
Type: cell-based

Row | Substance | Concentration (translocation activity of transport peptides) [µM] | Concentration (translocation activity), optimization of E^rns peptide [µM] | Translocation activity (in words)
1 | Biotin-KRIPNKKPGKKTTTKPTKK-NH2 [MDP-19] | 0.3 | – | –
2 | Biotin-KRIPNKKPGKKTTTKPTKKPTIK-NH2 [MDP-08] | 0.3 | – | –
3 | Biotin-KRIPNKKPGKKTTTKPTKKPTIKTTKKDLK-NH2 [MDN-13] | 1.0 | – | –
4 | Biotin-KRIPNKKPGKKTTTKPTKKPTIKTTKKDLKPQTTKPK-NH2 [MDN-12] | 1.0 | – | –
5 | Biotin-KRIPNKKPKK [MDS-36] | 0.03 | – | –
6 | Biotin-KRPAAIKKAGQAKKKK-NH2 [Bipartite] | 0.1 | – | –
7 | Biotin-KSICKTIPSNKPKKK-NH2 [MDP-21] | 1.0 | – | –
8 | Biotin-KTIPSNKPKKK-NH2 [MDS-35] | 0.1 | – | –
9 | Biotin-NRTRRNRRRVR-NH2 [Flockhouse virus peptide] | 0.03 | – | –
10 | Biotin-PKKKRKV-NH2 | 0.1 | – | –
11 | Biotin-QTRRRERRAEKQAQW-NH2 [Bacteriophage lambda N peptide] | 1.0 | – | –
12 | Biotin-RAGLQFPVGRVHRLLRK-NH2 [Antibacterial peptide Buforin, reference compound] | 3.0 | – | –
13 | Biotin-RPRGTRGKGRRIRR-NH2 [HIV-1 tat/tar] | 0.3 | – | –
14 | Biotin-RQLRIAGRRLRGRSR-NH2 [MDM-28] | – | 0.1 | –
15 | Biotin-RRRERRAEK-NH2 | 1.0 | – | –
16 | Biotin-RRVTSWLGRQLRIAGKRLEGRSK-NH2 [MDL-8] | – | 1.0 | –
17 | Biotin-RVRSWLGRQLRIAGKRLEGRSK-NH2 [MDL-9] | – | 1.0 | –
18 | Biotin-TRRSKRRSHRKF-NH2 [Herpes virus 8 k8 protein (res 124-135)] | 0.1 | – | –
19 | MAGAININ (GIGKFLHSAGKFGKAFVGEIMKS; also: biotinylated (site not given here)) [reference compound] | – | – | did not

Same assay, conditions: Table 9; lower concentration = higher translocation activity

Row | Substance | Concentration (translocation activity), optimization of E^rns peptide [µM]
20 | Rhodamine-GRQLRIAGRRLRGRSR-NH2 [A931] | 3.0

Same assay, conditions: Table 11

Row | Substance | Concentration (translocation activity of transport peptides) [µM]
21 | Bioton-KRIPNKKPGKKTTTKPTKKPTIKTTKK-NH2 [MDP-04] | 0.3
